Assay results reported in ChEMBL document CHEMBL1129611, “Vesamicol receptor mapping of brain cholinergic neurons with radioiodine-labeled positional isomers of benzovesamicol” (J Med Chem, 1996).

Experiments:
[1] = Tissue distribution of [125I]- labelled compound in mice lung in 4 hours; format: functional, tissue-based
[2] = Tissue distribution of [125I]- labelled compound in mice cerebellum in 0.5 hr; format: functional, tissue-based
[3] = Tissue distribution of [125I]- labelled compound in mice ventricles in 0.5 hr; format: functional
[4] = Tissue distribution of [125I]- labelled compound in mice cortex in 4 hours; format: functional, tissue-based
[5] = Tissue distribution of [125I]- labelled compound in mice hippocampus in 4 hours; format: functional, tissue-based
[6] = Tissue distribution of [125I]- labelled compound in mice atria in 4 hours; format: functional
[7] = Tissue distribution of [125I]- labelled compound in mice blood in 0.5 hours; format: functional, tissue-based
[8] = Tissue distribution of [125I]- labelled compound in mice liver in 4 hours; format: functional, tissue-based
[9] = Tissue distribution of [125I]- labelled compound in mice […] in 0.5 hours; format: functional
[10] = Tissue distribution of [125I]- labelled compound in mice hippocampus in 0.5 hours; format: functional, tissue-based
[11] = Tissue distribution of [125I]- labelled compound in mice liver in 0.5 hr; format: functional, tissue-based
[12] = (§1) Tissue distribution of [125I]- labelled compound in mice blood in 4 hours; format: functional, tissue-based
[13] = Tissue distribution of [125I]- labelled compound in mice striatum in 4 hours; format: functional, tissue-based
[14] = Tissue distribution of [125I]- labelled compound in mice latria in 0.5 hr; format: functional
[15] = Tissue distribution of [125I]- labelled compound in mice cerebellum in 4 hours; format: functional, tissue-based
[16] = Tissue distribution of [125I]- labelled compound in mice […] in 4 hours; format: functional
[17] = Tissue distribution of [125I]- labelled compound in mice striatum in 0.5 hours; format: functional, tissue-based
[18] = Tissue distribution of [125I]- labelled compound in mice cortex in 0.5 hours; format: functional, tissue-based
[19] = Tissue distribution of [125I]- labelled compound in mice ventricles in 4 hours; format: functional
[20] = Tissue distribution of [125I]- labelled compound in mice lung in 0.5 hr; format: functional, tissue-based
[21] = Tissue distribution of [125I]- labelled compound in mice cortex in 24 hours; format: functional, tissue-based
[22] = Tissue distribution of [125I]- labelled compound in mice […] in 24 hours; format: functional
[23] = Tissue distribution of [125I]- labelled compound in mice liver in 24 hours; format: functional, tissue-based
[24] = Tissue distribution of [125I]- labelled compound in mice blood in 24 hours; format: functional, tissue-based
[25] = Tissue distribution of [125I]- labelled compound in mice striatum in 24 hours; format: functional, tissue-based
[26] = Tissue distribution of [125I]- labelled compound in mice lung in 24 hours; format: functional, tissue-based
[27] = Tissue distribution of [125I]- labelled compound in mice cerebellum in 24 hours; format: functional, tissue-based
[28] = Tissue distribution of [125I]- labelled compound in mice hippocampus in 24 hours; format: functional, tissue-based
[29] = Tissue distribution of [125I]- labelled compound in mice ventricle in 24 hours; format: functional
[30] = Tissue distribution of [125I]- labelled compound in mice atria in 24 hours; format: functional
[31] = species on record: Mus musculus; experiment: as §1; format: ADME, organism-based; conditions: in vivo
[32] = Tissue distribution of [125I]- labelled compound in mice atria in 0.5 hr; format: functional

Row | SMILES | Dose/g [1] | Dose/g [2] | Dose/g [3] | Dose/g [4] | Dose/g [5] | Dose/g [6] | Dose/g [7] | Dose/g [8] | Dose/g [9] | Dose/g [10] | Dose/g [11] | Dose/g [12] | Dose/g [13] | Dose/g [14] | Dose/g [15] | Dose/g [16] | Dose/g [17] | Dose/g [18] | Dose/g [19] | Dose/g [20] | other results
1 | O[C@@H]1Cc2ccccc2C[C@H]1N1CCC(c2ccc(I)cc2)CC1 | 2.95% | 2.33% | 2.9% | 0.32% | 0.31% | 1.35% | 1.85% | 9.12% | 2.73% | 2.91% | 15.4% | 0.66% | 0.33% | 3.03% | 0.28% | 0.28% | 2.68% | 3.01% | 1.88% | 8.86% | 
2 | O[C@@H]1Cc2ccc(I)cc2C[C@H]1N1CCC(c2ccccc2)CC1 | 0.89% | 2.05% | 1.34% | 1.28% | 1.03% | 0.97% | 1.06% | 6.33% | 2.51% | 2.73% | 18% | 0.51% | 3.07% | 2.09% | 0.29% | 0.68% | 3.9% | 2.99% | 0.53% | 3.39% | Dose/g [21]: 0.22%; Dose/g [22]: 0.1%; Dose/g [23]: 0.88%; Dose/g [24]: 0.05%; Dose/g [25]: 0.76%; Dose/g [26]: 0.1%; Dose/g [27]: 0.05%; Dose/g [28]: 0.16%; Dose/g [29]: 0.1%; Dose/g [30]: 0.1%
3 | O[C@@H]1Cc2cccc(I)c2C[C@H]1N1CCC(c2ccccc2)CC1 | 1.11% | 1.28% | 1.27% | 1.17% | 1.06% | 1.43% | 0.82% | 5.92% | 1.69% | 2.09% | 11% | 0.53% | 3.3% | 1.73% | 0.21% | 0.61% | 3.81% | 2.29% | 0.31% | 7.57% | Dose/g [21]: 0.88%; Dose/g [22]: 0.42%; Dose/g [23]: 0.89%; Dose/g [24]: 0.04%; Dose/g [25]: 2.2%; Dose/g [26]: 0.09%; Dose/g [27]: 0.05%; Dose/g [28]: 0.71%; Dose/g [29]: 0.06%; Dose/g [30]: 0.82%
4 | O[C@@H]1Cc2c(I)cccc2C[C@H]1N1CCC(c2ccccc2)CC1 |  | 1.22% | 1.25% | 0.1% |  | 0.34% | 1% |  |  |  |  | 0.19% | 0.12% | 1.64% | 0.08% |  | 1.64% | 1.53% | 0.23% |  | 
5 | O[C@@H]1Cc2cc(I)ccc2C[C@H]1N1CCC(c2ccccc2)CC1 | 5.86% | 2.06% | 3.29% | 1.62% | 1.27% | 2.45% | 1.13% | 12.7% | 2.16% | 1.99% | 19.3% | 0.47% | 1.96% |  | 1.23% | 1.42% | 2.34% | 2.32% | 1.77% | 13.1% | Dose/g [21]: 1.74%; Dose/g [22]: 1.35%; Dose/g [23]: 6.48%; Dose/g [24]: 0.09%; Dose/g [25]: 2.32%; Dose/g [26]: 1.74%; Dose/g [31]: 0.47%; Dose/g [27]: 1.06%; Dose/g [32]: 4.37%; Dose/g [28]: 1.48%; Dose/g [29]: 0.27%; Dose/g [30]: 0.77%
